Data reported in patent US11098040B2, “Compounds and methods of use” (Ferro Therapeutics, Inc., priority 2018, dated 2021).
Values belong to the compound of their own block, whether it stands above or below them.

Tests used:
KP4 = test: Cell viability assay (CellTiter Glo), pancreatic ductal adenocarcinoma KP4; assay type: cell-based, human; details: Homo sapiens, KP-4, 96 h, pancreatic cancer cell line KP4, 96 hours, CellTiter Glo; read-out: IC50 μM KP4
How it was run: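 KP4 cells seeded at 1,000–10,000 per well, treated 96 h with 9-point 3-fold dilutions from 30 μM top (4.6 nM–30 μM, duplicates; ≤0.25% DMSO). Viability by CellTiter Glo luminescence; % inhibition relative to DMSO-only wells, giving IC50, relative IC50 or % top inhibition.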

[1] = Whole blood stability, mouse; assay type: in vitro ADME
From the text: (§1) The results of the assay on stability in blood and IC50 values for pancreatic cancer cell line KP4 are given below in Table 24.

[2] = Whole blood stability, human; assay type: in vitro ADME
From the text: as §1

SMILES: COC(=O)[C@H]1Cc2c([nH]c3ccccc23)[C@H](C23CC(C(=O)OC)(C2)C3)N1C(=O)CCl [Compound 62]
IC50 (KP4): 0.01 to 0.1 µM
Whole Blood Stability % Remaining at 37° C. Mouse ([1]; 0 min): 100.0%
Whole Blood Stability % Remaining at 37° C. Mouse ([1]; 30 min): 0.0%
Whole Blood Stability % Remaining at 37° C. Mouse ([1]; 60 min): 0.0%
Whole Blood Stability % Remaining at 37° C. Human ([2]; 0 min): 100.0%
Whole Blood Stability % Remaining at 37° C. Human ([2]; 30 min): 82.4%
Whole Blood Stability % Remaining at 37° C. Human ([2]; 60 min): 43.5%

SMILES: CN(C)C(=O)[C@H]1Cc2c([nH]c3ccccc23)[C@H](c2ccc(C(=O)NC[Si](C)(C)C)cc2)N1C(=O)CCl [Compound 66]
IC50 (KP4): 0.01 to 0.1 µM
Whole Blood Stability % Remaining at 37° C. Mouse ([1]; 0 min): 100.0%
Whole Blood Stability % Remaining at 37° C. Mouse ([1]; 30 min): 69.8%
Whole Blood Stability % Remaining at 37° C. Mouse ([1]; 60 min): 26.8%
Whole Blood Stability % Remaining at 37° C. Human ([2]; 0 min): 100.0%
Whole Blood Stability % Remaining at 37° C. Human ([2]; 30 min): 79.1%
Whole Blood Stability % Remaining at 37° C. Human ([2]; 60 min): 45.8%

SMILES: CN(C)C(=O)[C@H]1Cc2c([nH]c3ccccc23)[C@H](c2ccc([Si](C)(C)C)cc2)N1C(=O)CCl [Compound 67]
IC50 (KP4): 0.01 to 0.1 µM
Whole Blood Stability % Remaining at 37° C. Mouse ([1]; 0 min): 100.0%
Whole Blood Stability % Remaining at 37° C. Mouse ([1]; 30 min): 38.7%
Whole Blood Stability % Remaining at 37° C. Mouse ([1]; 60 min): 13.3%
Whole Blood Stability % Remaining at 37° C. Human ([2]; 0 min): 100.0%
Whole Blood Stability % Remaining at 37° C. Human ([2]; 30 min): 56.8%
Whole Blood Stability % Remaining at 37° C. Human ([2]; 60 min): 37.3%

SMILES: CN(C)C(=O)[C@H]1Cc2c([nH]c3ccccc23)[C@@H](c2ccc([Si](C)(C)C)cc2)N1C(=O)CCl [Compound 67a]
IC50 (KP4): > 1 µM
Whole Blood Stability % Remaining at 37° C. Mouse ([1]; 0 min): 100.0%
Whole Blood Stability % Remaining at 37° C. Mouse ([1]; 30 min): 52.4%
Whole Blood Stability % Remaining at 37° C. Mouse ([1]; 60 min): 18.2%
Whole Blood Stability % Remaining at 37° C. Human ([2]; 0 min): 100.0%
Whole Blood Stability % Remaining at 37° C. Human ([2]; 30 min): 35.5%
Whole Blood Stability % Remaining at 37° C. Human ([2]; 60 min): 15.5%

SMILES: CN(C)C(=O)[C@H]1Cc2c([nH]c3ccccc23)[C@H](c2ccc(S(=O)(=O)C(C)(C)C)cc2)N1C(=O)CCl [Compound 68]
IC50 (KP4): 0.01 to 0.1 µM
Whole Blood Stability % Remaining at 37° C. Mouse ([1]; 0 min): 100.0%
Whole Blood Stability % Remaining at 37° C. Mouse ([1]; 30 min): 65.0%
Whole Blood Stability % Remaining at 37° C. Mouse ([1]; 60 min): 36.9%
Whole Blood Stability % Remaining at 37° C. Human ([2]; 0 min): 100.0%
Whole Blood Stability % Remaining at 37° C. Human ([2]; 30 min): 36.8%
Whole Blood Stability % Remaining at 37° C. Human ([2]; 60 min): 20.6%

SMILES: CN(C)C(=O)[C@H]1Cc2c([nH]c3ccccc23)[C@H](c2ccc(S(=O)(=O)C3CCCC3)cc2)N1C(=O)CCl [Compound 69]
IC50 (KP4): 0.01 to 0.1 µM
Whole Blood Stability % Remaining at 37° C. Mouse ([1]; 0 min): 100.0%
Whole Blood Stability % Remaining at 37° C. Mouse ([1]; 30 min): 63.8%
Whole Blood Stability % Remaining at 37° C. Mouse ([1]; 60 min): 29.3%
Whole Blood Stability % Remaining at 37° C. Human ([2]; 0 min): 100.0%
Whole Blood Stability % Remaining at 37° C. Human ([2]; 30 min): 48.4%
Whole Blood Stability % Remaining at 37° C. Human ([2]; 60 min): 18.3%

SMILES: CN(C)C(=O)[C@H]1Cc2c([nH]c3ccccc23)[C@H](c2ccc(S(=O)(=O)C3CC3)cc2)N1C(=O)CCl [Compound 70]
IC50 (KP4): 0.1 to 0.5 µM
Whole Blood Stability % Remaining at 37° C. Mouse ([1]; 0 min): 100.0%
Whole Blood Stability % Remaining at 37° C. Mouse ([1]; 30 min): 63.3%
Whole Blood Stability % Remaining at 37° C. Mouse ([1]; 60 min): 36.6%
Whole Blood Stability % Remaining at 37° C. Human ([2]; 0 min): 100.0%
Whole Blood Stability % Remaining at 37° C. Human ([2]; 30 min): 46.0%
Whole Blood Stability % Remaining at 37° C. Human ([2]; 60 min): 23.8%

SMILES: CC(=O)Nc1ccc([C@H]2c3[nH]c4ccccc4c3C[C@H](C(=O)N(C)C)N2C(=O)CCl)cc1 [Compound 71]
IC50 (KP4): > 1 µM
Whole Blood Stability % Remaining at 37° C. Mouse ([1]; 0 min): 100.0%
Whole Blood Stability % Remaining at 37° C. Mouse ([1]; 30 min): 90.4%
Whole Blood Stability % Remaining at 37° C. Mouse ([1]; 60 min): 75.5%
Whole Blood Stability % Remaining at 37° C. Human ([2]; 0 min): 100.0%
Whole Blood Stability % Remaining at 37° C. Human ([2]; 30 min): 80.4%
Whole Blood Stability % Remaining at 37° C. Human ([2]; 60 min): 59.3%

SMILES: CC(=O)Nc1ccc([C@@H]2c3[nH]c4ccccc4c3C[C@H](C(=O)N(C)C)N2C(=O)CCl)cc1 [Compound 71a]
IC50 (KP4): > 1 µM
Whole Blood Stability % Remaining at 37° C. Mouse ([1]; 0 min): 100.0%
Whole Blood Stability % Remaining at 37° C. Mouse ([1]; 30 min): 76.5%
Whole Blood Stability % Remaining at 37° C. Mouse ([1]; 60 min): 43.8%
Whole Blood Stability % Remaining at 37° C. Human ([2]; 0 min): 100.0%
Whole Blood Stability % Remaining at 37° C. Human ([2]; 30 min): 54.9%
Whole Blood Stability % Remaining at 37° C. Human ([2]; 60 min): 25.7%

SMILES: COC(=O)c1ccc([C@H]2c3c(c4ccccc4n3C)C[C@H](C(=O)OC)N2C(=O)CCl)cc1 [Compound 72]
IC50 (KP4): 0.01 to 0.1 µM
Whole Blood Stability % Remaining at 37° C. Mouse ([1]; 0 min): 100.0%
Whole Blood Stability % Remaining at 37° C. Mouse ([1]; 30 min): 0.0%
Whole Blood Stability % Remaining at 37° C. Mouse ([1]; 60 min): 0.2%
Whole Blood Stability % Remaining at 37° C. Human ([2]; 0 min): 100.0%
Whole Blood Stability % Remaining at 37° C. Human ([2]; 30 min): 28.0%
Whole Blood Stability % Remaining at 37° C. Human ([2]; 60 min): 7.0%

SMILES: COC(=O)c1ccc([C@@H]2c3c(c4ccccc4n3C)C[C@H](C(=O)OC)N2C(=O)CCl)cc1 [Compound 73]
IC50 (KP4): 0.5 to 1 µM
Whole Blood Stability % Remaining at 37° C. Mouse ([1]; 0 min): 100.0%
Whole Blood Stability % Remaining at 37° C. Mouse ([1]; 30 min): 48.5%
Whole Blood Stability % Remaining at 37° C. Mouse ([1]; 60 min): 1.1%
Whole Blood Stability % Remaining at 37° C. Human ([2]; 0 min): 100.0%
Whole Blood Stability % Remaining at 37° C. Human ([2]; 30 min): 55.1%
Whole Blood Stability % Remaining at 37° C. Human ([2]; 60 min): 36.1%

Now from value to compound:

IC50 (KP4): < 0.01 µM
Whole Blood Stability % Remaining at 37° C. Mouse ([1]; 0 min): 100.0%
Whole Blood Stability % Remaining at 37° C. Mouse ([1]; 30 min): 20.5%
Whole Blood Stability % Remaining at 37° C. Mouse ([1]; 60 min): 6.8%
Whole Blood Stability % Remaining at 37° C. Human ([2]; 0 min): 100.0%
Whole Blood Stability % Remaining at 37° C. Human ([2]; 30 min): 49.2%
Whole Blood Stability % Remaining at 37° C. Human ([2]; 60 min): 34.0%
SMILES: CN(C)C(=O)[C@H]1Cc2c([nH]c3ccc(Br)cc23)[C@H](c2ccc(C(=O)OC(C)(C)C)cc2)N1C(=O)CCl [Compound 61]

IC50 (KP4): 0.01 to 0.1 µM
Whole Blood Stability % Remaining at 37° C. Mouse ([1]; 0 min): 100.0%
Whole Blood Stability % Remaining at 37° C. Mouse ([1]; 30 min): 97.0%
Whole Blood Stability % Remaining at 37° C. Mouse ([1]; 60 min): 108.4%
Whole Blood Stability % Remaining at 37° C. Human ([2]; 0 min): 100.0%
Whole Blood Stability % Remaining at 37° C. Human ([2]; 30 min): 113.1%
Whole Blood Stability % Remaining at 37° C. Human ([2]; 60 min): 70.7%
SMILES: COC[C@H]1Cc2c([nH]c3ccccc23)[C@H](c2ccc(C(=O)OC(C)(C)C)cc2)N1C(=O)CCl [Compound 63]

IC50 (KP4): 0.1 to 0.5 µM
Whole Blood Stability % Remaining at 37° C. Mouse ([1]; 0 min): 100.0%
Whole Blood Stability % Remaining at 37° C. Mouse ([1]; 30 min): 0.0%
Whole Blood Stability % Remaining at 37° C. Mouse ([1]; 60 min): 0.0%
Whole Blood Stability % Remaining at 37° C. Human ([2]; 0 min): 100.0%
Whole Blood Stability % Remaining at 37° C. Human ([2]; 30 min): 44.3%
Whole Blood Stability % Remaining at 37° C. Human ([2]; 60 min): 14.7%
SMILES: COC[C@H]1Cc2c([nH]c3ccccc23)[C@@H](c2ccc(C(=O)OC(C)(C)C)cc2)N1C(=O)CCl [Compound 64]

IC50 (KP4): < 0.01 µM
Whole Blood Stability % Remaining at 37° C. Mouse ([1]; 0 min): 100.0%
Whole Blood Stability % Remaining at 37° C. Mouse ([1]; 30 min): 0.0%
Whole Blood Stability % Remaining at 37° C. Mouse ([1]; 60 min): 0.0%
Whole Blood Stability % Remaining at 37° C. Human ([2]; 0 min): 100.0%
Whole Blood Stability % Remaining at 37° C. Human ([2]; 30 min): 58.2%
Whole Blood Stability % Remaining at 37° C. Human ([2]; 60 min): 29.0%
SMILES: C=CCOC(=O)c1ccc([C@H]2c3[nH]c4ccccc4c3C[C@H](C(=O)OC)N2C(=O)CCl)cc1 [Compound 74]

IC50 (KP4): < 0.01 µM
Whole Blood Stability % Remaining at 37° C. Mouse ([1]; 0 min): 100.0%
Whole Blood Stability % Remaining at 37° C. Mouse ([1]; 30 min): 1.8%
Whole Blood Stability % Remaining at 37° C. Mouse ([1]; 60 min): 0.9%
Whole Blood Stability % Remaining at 37° C. Human ([2]; 0 min): 100.0%
Whole Blood Stability % Remaining at 37° C. Human ([2]; 30 min): 68.1%
Whole Blood Stability % Remaining at 37° C. Human ([2]; 60 min): 41.5%
SMILES: COC(=O)[C@H]1Cc2c([nH]c3ccccc23)[C@H](c2ccc(C(=O)OCC3CC3)cc2)N1C(=O)CCl [Compound 75]
